Among the data in publication PMC9267659, “Directed Evolution of Phi Class Glutathione Transferases Involved in Multiple-Herbicide Resistance of Grass Weeds and Crops” (International Journal of Molecular Sciences, 2022) are IC50 and Km values, retold here.

Assay [1] deals with T1, HvGSTF (Hordeum vulgare, UniProt Q8VWW3).
T1 construct: gene GST6; full length, pEXP5-CT/TOPO template, His-tagged, E. coli, Ni-IDA-Sepharose purified, homodimer
T1 sequence (Q8VWW3 1-219): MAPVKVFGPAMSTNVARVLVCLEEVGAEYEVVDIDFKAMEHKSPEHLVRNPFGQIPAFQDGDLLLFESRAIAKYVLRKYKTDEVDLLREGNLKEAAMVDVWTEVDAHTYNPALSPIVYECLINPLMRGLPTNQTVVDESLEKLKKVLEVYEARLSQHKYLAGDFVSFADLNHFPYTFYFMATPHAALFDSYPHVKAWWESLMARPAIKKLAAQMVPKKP
The assay is described as follows: dose-response inhibition of GST activity. In kind it is biochemical. The text has this: dose-response inhibition of GST activity on HvGSTF

Assay [2] has as its target T2, TdGSTF (Triticum turgidum, UniProt A0A9R0QM20).
T2 construct: gene TRITD_1Bv1G036980; full length, pEXP5-CT/TOPO template, His-tagged, E. coli, Ni-IDA-Sepharose purified, homodimer
T2 sequence (A0A9R0QM20 1-219): T1 sequence (Q8VWW3 1-219) with D82N, E83G, N91D, L113I, K158E, S200R, I207V
Kind of assay: dose-response inhibition of GST activity. In kind it is biochemical. From the text:
dose-response inhibition of GST activity on TdGSTF

Assay [3] deals with T3, sh101.
T3 construct: gene AmGSTF; DNA-shuffled GSTF, 11 mutations vs AmGSTF (named in text: S90G, E93K, Q119E, F122I, M125L, DEK132-134NQT)
Kind of assay: dose-response inhibition of GST activity. In kind it is biochemical, Alopecurus myosuroides. The text has this:
dose-response inhibition of GST activity on sh101

Assay [4] relates to T4, sh168.
T4 construct: gene AmGSTF; has K93; keeps F122, M125 and DEK132-134 of AmGSTF; C-His, E. coli, dimer
Kind of assay: dose-response inhibition of GST activity. Type of assay: biochemical, Alopecurus myosuroides. The text has this: dose-response inhibition of GST activity on sh168

The test system of assay [5] is T5, sh155.
T5 construct: gene AmGSTF; DNA-shuffled GSTF, 17 mutations vs AmGSTF (named in text: S90G, E93K, Q119E, F122I, M125L, DEK132-134NQT)
The assay is described as follows: dose-response inhibition of GST activity. In kind it is biochemical, Alopecurus myosuroides. The text has this:
dose-response inhibition of GST activity on sh155

For assay [6], the target named is T6, LrGSTF (Lolium rigidum, UniProt M5BPX4).
T6 construct: gene GST; full length, synthetic gene, His-tagged (C-His vector), E. coli, Ni-IDA-Sepharose purified, homodimer
T6 sequence (M5BPX4 1-219): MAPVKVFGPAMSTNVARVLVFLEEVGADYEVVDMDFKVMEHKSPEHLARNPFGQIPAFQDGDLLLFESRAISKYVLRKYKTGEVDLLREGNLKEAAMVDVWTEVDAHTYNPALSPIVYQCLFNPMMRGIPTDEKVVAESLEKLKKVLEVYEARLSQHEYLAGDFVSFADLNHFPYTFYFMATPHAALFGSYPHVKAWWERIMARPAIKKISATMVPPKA
The assay is described as follows: dose-response inhibition of GST activity. Type of assay: biochemical. From the text:
dose-response inhibition of GST activity on LrGSTF

Assay [7] deals with T7, AmGSTF (Alopecurus myosuroides, UniProt Q9ZS17).
T7 construct: gene GST2c; full length, synthetic gene, His-tagged (C-His vector), E. coli, Ni-IDA-Sepharose purified, homodimer
T7 sequence (Q9ZS17 1-219): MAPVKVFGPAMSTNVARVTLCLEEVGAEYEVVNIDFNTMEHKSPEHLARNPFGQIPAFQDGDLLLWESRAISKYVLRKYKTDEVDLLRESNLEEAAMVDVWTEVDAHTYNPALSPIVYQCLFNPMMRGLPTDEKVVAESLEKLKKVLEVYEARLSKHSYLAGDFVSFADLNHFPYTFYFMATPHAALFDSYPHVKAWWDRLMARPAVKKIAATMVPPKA
The assay is described as follows: dose-response inhibition of GST activity. Type of assay: biochemical. The text has this:
dose-response inhibition of GST activity on AmGSTF

Assay [8] relates to T8, sh49.
T8 construct: gene AmGSTF; keeps F122, M125, E93 and DEK132-134 of AmGSTF; C-His, E. coli, dimer
Kind of assay: dose-response inhibition of GST activity. In kind it is biochemical, Alopecurus myosuroides. From the text: dose-response inhibition of GST activity on sh49

Assay [9] has as its target T6, LrGSTF. The assay is described as follows: steady-state kinetics, CDNB conjugation. The following applies: read-out: S0.5 (mM) / CDNB; co-substrate GSH; 0.1 M sodium phosphate pH 6.5, 37 °C; positive cooperativity, nH 1.41. In kind it is biochemical. The text has this:
steady-state kinetics, CDNB conjugation on LrGSTF

In assay [10] the target is T2, TdGSTF. Kind of assay: steady-state kinetics, CDNB conjugation. Type of assay: biochemical. The note with it: read-out: S0.5 (mM) / CDNB; co-substrate GSH; 0.1 M sodium phosphate pH 6.5, 37 °C; positive cooperativity, nH 1.43. The text has this: steady-state kinetics, CDNB conjugation on TdGSTF
Assay [11] relates to T3, sh101. Kind of assay: steady-state kinetics, CDNB conjugation. In kind it is biochemical, Alopecurus myosuroides. The note with it: co-substrate GSH; 0.1 M sodium phosphate pH 6.5, 37 °C; nH 1.1; read-out: S0.5 (mM) / CDNB. From the text:
steady-state kinetics, CDNB conjugation on sh101

In assay [12] the target is T1, HvGSTF. Kind of assay: steady-state kinetics, CDNB conjugation. In kind it is biochemical. The following applies: read-out: S0.5 (mM) / CDNB; co-substrate GSH; 0.1 M sodium phosphate pH 6.5, 37 °C; positive cooperativity, nH 1.46. From the text:
steady-state kinetics, CDNB conjugation on HvGSTF

For assay [13], the target named is T7, AmGSTF. Kind of assay: steady-state kinetics, CDNB conjugation. The note with it: read-out: S0.5 (mM) / CDNB; co-substrate GSH; 0.1 M sodium phosphate pH 6.5, 37 °C; positive cooperativity, nH 1.5. Type of assay: biochemical. The text has this:
steady-state kinetics, CDNB conjugation on AmGSTF

For assay [14], the system named is T5, sh155. The assay is described as follows: steady-state kinetics, CDNB conjugation. Type of assay: biochemical, Alopecurus myosuroides. The following applies: co-substrate GSH; 0.1 M sodium phosphate pH 6.5, 37 °C; nH 1.02; read-out: S0.5 (mM) / CDNB. The text has this:
steady-state kinetics, CDNB conjugation on sh155

Residue numbers refer to the chain shown, from its start.

With `CCCCOCN(C(=O)CCl)c1c(CC)cccc1CC` [butachlor], the IC50 in assay [1] amounted to 9.2 ± 0.6 µM; in assay [2], 9.9 ± 0.2 µM; in assay [3], 5.9 ± 0.4 µM; in [4], 3.1 ± 0.08 µM; in assay [5] it was 3.4 ± 0.1 µM; in assay [6] it was 7.1 ± 0.5 µM. Also, the IC50 was 7.3 ± 0.4 µM in assay [7] and 2.6 ± 0.04 µM in assay [8].
As for `O=[N+]([O-])c1ccc(Cl)c([N+](=O)[O-])c1` [CDNB], the Km in assay [9] worked out at 0.76 ± 0.04 mM; in assay [10] it was 0.51 ± 0.02 mM; in assay [11], 0.41 ± 0.02 mM; in assay [12], 0.52 ± 0.01 mM; in assay [13], 0.65 ± 0.03 mM; in assay [14], 0.77 ± 0.06 mM.
